Results on 1 compound are retold here after patent publication US20240208954A1, “OXADIAZOLE COMPOUND, PREPARATION METHOD THEREFOR, PHARMACEUTICAL COMPOSITION AND USE THEREOF” (SHANGHAI INSTITUTE OF MATERIA MEDICA, CHINESE ACADEMY OF …, priority 2020, published 2024).

Entries after “also recorded” stand apart in the source; their conditions may differ. Like-named read-outs stand apart in the source and are kept apart here. Bounds are passed on as bounds.

In one data set the target is S1PR3 (Homo sapiens, UniProt Q99500). In words: Agonistic activity test on S1P receptors, FLIPR. In kind it is cell-based. The protocol:
(§1) Instrument: FLIPR™ TETRA (Molecular Device)
(§2) Sample processing: Before the experiment, the working solution with the corresponding concentration was prepared by diluting with GPCR dilution buffer.
(§3) After 18-20 hours, the cell culture plat was taken out and added with dye working solution, and then the plate was placed in a 37° C./5% CO2 incubator for 1 hour, and finally equilibrated at room temperature for 15 minutes. Positive agonist working solution was added, and RFU values were detected and recorded. […] The positive agonist working fluid was added to the cell culture plate at the 21st second. […] The antagonistic mode detection program, the overall detection time of the instrument was 120 seconds, and positive antagonist working solution was added to the cell culture plate at the 21st second.
(§4) Data processing: Raw data were obtained via ScreenWorks (version 3.1) and saved as *FMD files on the Kingsray computer network system. Data were collected and analyzed using Excel and GraphPad Prism 6 software programs. For each well, the average fluorescence intensity value from 1 to 20 seconds was used as the baseline, and the maximum fluorescence intensity value from 21 to 120 seconds minus the minimum fluorescence intensity value from 21 to 120 seconds was the relative fluorescence intensity value (ARFU), from which the percentage activation or inhibition can be calculated based on the following equation.
(§5) % Activation Rate=(ΔRFUCompound-ΔRFUBackground)/(ΔRFUAgonist control-ΔRFUBackground)×100%
(§6) The data was analyzed using GraphPad Prism 6 with a four-parameter equation to calculate the EC50 and IC50 values. The four-parameter equation was as follows: y=Bottom+(Top-Bottom)/(1+10^((LogEC50/IC50-X)*HillSlope)), wherein X is the Log value of the concentration and Y was the inhibition rate.

The target in another data set is T1, S1PR1 (Homo sapiens, UniProt P21453).
T1 construct: host or cells: CHO-K1 co-expressing Ga15
T1 sequence (P21453 whole entry): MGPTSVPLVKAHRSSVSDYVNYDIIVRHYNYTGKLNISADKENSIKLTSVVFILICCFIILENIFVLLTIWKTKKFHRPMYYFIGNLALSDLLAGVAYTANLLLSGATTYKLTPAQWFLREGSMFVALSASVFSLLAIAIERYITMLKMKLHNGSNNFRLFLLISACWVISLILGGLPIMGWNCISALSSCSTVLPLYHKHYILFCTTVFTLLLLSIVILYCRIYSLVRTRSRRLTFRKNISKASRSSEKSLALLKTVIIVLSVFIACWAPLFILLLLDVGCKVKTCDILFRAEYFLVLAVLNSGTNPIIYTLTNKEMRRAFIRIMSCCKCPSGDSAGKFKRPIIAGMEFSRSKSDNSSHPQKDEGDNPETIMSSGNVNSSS
In words: Agonistic activity test on S1P receptors, FLIPR, CHO-K1/Ga15/EDG1 cells. Format: cell-based. Particulars: CHO-K1/Ga15/EDG1 cells, FLIPR agonist mode; read-out: S1PR1 EC50. The protocol: as §1
Experimental materials: CHO-K1/Ga15/EDG1 cells constructed by GenScript autonomously.
as §2, §3, §4, §5, §6

The test system of data set [1] is CCI4-induced liver fibrosis model. In words: Pharmacological activity test in carbon tetrachloride induced liver fibrosis model. In kind it is in vivo, C57BL/6 mice. How it is done: Male C57BL/6 mice were injected intraperitoneally with 5% CCI4(dissolved in corn oil) at 5 mL/kg twice a week to induce liver fibrosis model. Three weeks after modeling, mice were randomly divided into five groups: model control group (Model, n=12), positive compound FTY720 group (2 mg/kg, n=9), positive compound OCA group (30 mg/kg, n=10), low dose group (3 mg/kg), high dose group (10 mg/kg), FTY720 was administered by intraperitoneal injection and the rest of the groups were administered by oral gavage, once a day. After 5 weeks of administration, the mice were sacrificed by dislocation after blood was taken via the posterior ophthalmic plexus, liver and spleen were taken and weighed. Part of the liver was fixed in 4% paraformaldehyde, and part of the liver and serum were stored at −80° C. 10 mice from the same litter were injected intraperitoneally with the same dose of corn oil throughout the experiment as a systemic control.

Data set [2] concerns MCD-HFD induced NASH model. Description: Pharmacological activity test in MCD-HFD induced NASH model. Format: in vivo, C57BL/6 mice. How it is done: Male C57BL/6 mice were fed with MCD-HFD diet to induce the NASH model, and 4 weeks after modeling, the mice were randomly divided into […]: normal diet control group (Control, n=9), model control group (Model, n=10), positive compound BAF312 group (0.3 mg/kg, n=10), low dose group (0.3 mg/kg, n=10), medium dose group (3 mg/kg, n=10), and high dose group (10 mg/kg, n=10), administered by gavage in a volume of 5 mL/kg once a day. The animals were monitored for food intake and body weight during administration; 4 weeks after administration, the mice were sacrificed by dislocation after blood was taken via the posterior ophthalmic plexus, livers and spleens were weighed, part the liver was fixed in 4% paraformaldehyde, and all tissues and serum were stored at −80° C.

[3] abbreviates: high-dose group (10 mg/kg), gavage once a day, 4 weeks.

S1PR3, sequence (Q99500 whole entry, species assumed): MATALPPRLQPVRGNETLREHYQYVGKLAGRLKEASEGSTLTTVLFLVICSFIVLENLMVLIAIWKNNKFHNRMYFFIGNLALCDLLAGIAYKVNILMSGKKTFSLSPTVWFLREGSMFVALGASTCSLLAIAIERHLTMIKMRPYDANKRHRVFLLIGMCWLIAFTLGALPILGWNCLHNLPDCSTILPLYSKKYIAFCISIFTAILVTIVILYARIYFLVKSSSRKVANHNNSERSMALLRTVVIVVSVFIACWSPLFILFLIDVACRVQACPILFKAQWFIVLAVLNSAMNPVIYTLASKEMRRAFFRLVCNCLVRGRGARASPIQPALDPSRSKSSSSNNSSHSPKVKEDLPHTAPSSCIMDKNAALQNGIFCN

As to `CC(C)Oc1ccc(-c2nc(-c3ccc(CN4CC(C(=O)O)C4)c4ccccc34)no2)cc1C#N.Cl` [Compound A1, 1-((4-(5-(3-cyano-4-isopropoxyphenyl)-1,2,4-oxadiazol-3-yl)naphthalen-1-yl)methyl) azetidine-3-carboxylic acid hydrochloric acid], the EC50 on S1PR3 (FLIPR agonist mode, read-out: S1PR3 EC50) was over 10 µM. Besides, the EC50 at S1PR3 (subtype selectivity study, read-out: S1P3 EC50) was over 10 µM. The EC50 on S1PR1 amounted to 0.048 µM. For the same compound, in data set [1] (high dose (10 mg/kg), 10 mg/kg), the “hydroxyproline content in the liver” value is reported as “significantly alleviated; also recorded: alleviating” and the “mRNA expression of liver fibrosis-related genes (Tgfb, Col1a1)” value was “significantly downregulated; also recorded: downregulates”. In addition, the “liver and spleen organ weights” value in data set [1] (oral gavage once a day, 5 weeks) is recorded as “without affecting”. In addition, the “ALT levels in serum” value in data set [1] (oral gavage once a day, 5 weeks, 3 and 10 mg/kg groups) was “significantly reduced”. In data set [1] (pathological section analysis), the “collagen deposition in the liver” value was “significantly reduced”. Besides, in data set [2] (FIG. 10 legend: at high/medium/low doses), the “hepatic lipid accumulation as well as inflammatory infiltration” value was “alleviated”. Moreover, the “hepatic lipid accumulation and inflammatory infiltration” value in data set [2] (H&E-stained liver sections, high-dose (10 mg/kg)) was “effective in alleviating”. Also, the body weight entry in data set [2] (gavage once a day, 4 weeks) was “without affecting”. Moreover, in data set [2] (high-dose group (10 mg/kg)), the “TG accumulation in the liver” value is reported as “significantly alleviating”. Also, in data set [2] (setting [3]), the “serum ALT levels” value is on record as “significantly reduced” and the “serum AST levels” value was “significantly reduced”. Besides, the “expression levels of fibrosis-related genes (Asma, Tgfb, Col1a1)” value in data set [2] (high/medium-dose (10/3 mg/kg)) was “significantly downregulated; also recorded: downregulates”. Also, the “hydroxyproline levels in the liver” value in data set [2] (high/medium-dose (10/3 mg/kg), to different degrees) is “effective in alleviating; also recorded: alleviated”. Moreover, the “mRNA expression of liver inflammation-related genes (Tnfa, Il1b, Nlrp3, Ccl2)” value in data set [2] (high/medium/low doses (10/3/0.3 mg/kg), to different degrees) is “significantly downregulated”.
